Here are results for three compounds from ChEMBL document CHEMBL1149041, “Polypropionates from the Mediterranean Mollusk Elysia timida” (J Nat Prod, 1994).

This series relates to Gambusia affinis. Briefly: Ichthyotoxicity against Gambusia affinis at 5 ppm. Type of series: organism-based. To be noted: in vivo.
Consider `CC/C=C(\C)[C@H]1C(C)=C[C@@]2(C)[C@@H]1[C@]2(C)c1oc(OC)c(C)c(=O)c1C` [PHOTODEOXYTRIDACHIONE], for which the outcome was Active.

In the case of `C/C=C(\C)[C@H]1C(C)=C[C@@]2(C)[C@@H]1[C@]2(C)c1oc(OC)c(C)c(=O)c1C`, the outcome was Active. The value for `CC/C=C(\C)[C@H]1C(C)=CC(C)=C[C@]1(C)c1oc(OC)c(C)c(=O)c1C` was “Active”.
